Experimental findings from patent publication US10040802B2, “Thienopyrazine inhibitors of IRAK4 activity” (MERCK SHARP & DOHME CORP., priority 2015, dated 2018) are described below.

Where a name gives a salt, the structure may show the parent alone.

A word on the IC50: it is the concentration at which inhibition is half-maximal. Lower therefore signals greater potency in that assay.

GST tagged IRAK4, sequence (Q9NWZ3 whole entry): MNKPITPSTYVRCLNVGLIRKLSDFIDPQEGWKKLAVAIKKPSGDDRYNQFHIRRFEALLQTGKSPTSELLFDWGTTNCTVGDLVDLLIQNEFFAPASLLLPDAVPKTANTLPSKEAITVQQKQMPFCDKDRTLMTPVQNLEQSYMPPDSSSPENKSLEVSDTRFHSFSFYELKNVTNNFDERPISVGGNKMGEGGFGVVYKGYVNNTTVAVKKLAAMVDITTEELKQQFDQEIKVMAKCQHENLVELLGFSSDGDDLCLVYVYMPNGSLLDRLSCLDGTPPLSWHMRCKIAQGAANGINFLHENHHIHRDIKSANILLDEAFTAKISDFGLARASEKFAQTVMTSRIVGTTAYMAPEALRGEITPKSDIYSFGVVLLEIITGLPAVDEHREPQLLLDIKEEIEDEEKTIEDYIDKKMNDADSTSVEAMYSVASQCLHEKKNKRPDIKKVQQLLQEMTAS

In the test the target is GST tagged IRAK4 (Homo sapiens (Human), UniProt Q9NWZ3). Kind of test: IRAK4 Kinase Assay (IMAP fluorescence polarization). Type of test: biochemical. The settings on record: 0.5 nM GST tagged IRAK4, 100 μM ATP, 30 minutes at 25° C. Here is the method:
The kinase activity of IRAK4 is determined by its ability to catalyze the phosphorylation of a fluorescent polypeptide substrate. The extent of phosphorylation is measured using the IMAP technology (Molecular Devices) where the phosphorylated fluorescent substrate binds to the large M(III)-based nanoparticles which reduces the rotational speed of the substrate and thus increases its fluorescent polarization (FP).
20 μL reaction mixture contains 10 mM TriHCl, pH 7.2, 0.5 nM GST tagged IRAK4 (SignalChem), 100 nM fluorescent peptide substrate (RP7030, Molecular Devices), 100 μM ATP, 1 mM DDT, 1 mM MgCl2, and 0.01% Tween 20. The reaction is initiated by the addition of ATP. After incubation for 30 minutes at 25° C., 60 μL of Progressive IMAP Reagent (Molecular Devices) is added to stop the reaction. Change in RP7030's FP is determined by a FP reader (Analyst HT, LJL BioSystems).
A general note: Polarisation of emitted light reports the rotation of a fluorescent probe.
For `Cn1cc(NC(=O)c2csc3ncc(N[C@@H]4CCCC(F)(F)[C@@H]4N)nc23)c(C#N)n1` [Example 36, 2-{[(1R,2R)-2-amino-3,3-difluorocyclohexyl]amino}-N-(3-cyano-1-methyl-1H-pyrazol-4-yl]thieno[2,3-b] pyrazine-7-carboxamide trifluoroacetate], 50 nM corresponded to half-maximal inhibition (IC50).

The molecule `O=C(Nc1ccccc1Br)c1csc2ncc(N3CCCNCC3)nc12` [Example 82, N-(2-bromophenyl)-2-(1,4-diazepan-1-yl)thieno[2,3-b]pyrazine-7-carboxamide trifluoroacetate] registered an IC50 of 2340 nM.

Regarding `O=C(Nc1ccsc1Cl)c1csc2ncc(N3C[C@@H]4CC[C@H]3CN4)nc12` (single isomer, unassigned) [Example 61, N-(2-chlorothiophen-3-yl)-2-[(1S,4S)- or (1R,4R)-2,5-diazabicylo[2.2.2]oct-2-yl]thieno[2,3-b] pyrazine-7-carboxamide trifluoroacetate], 689 nM corresponded to half-maximal inhibition (IC50).

As to `Cn1cc(NC(=O)c2csc3ncc(N4CC5CCC(C4)N5)nc23)c(C(F)(F)F)n1` [Example 41, 2-(3,8-diazabicyclo[3.2.1]oct-3-yl)-N-[1-methyl-3-(trifluoromethyl)-1H-pyrazol-4-yl]thieno[2,3-b] pyrazine-7-carboxamide trifluoroacetate], the IC50 was 18 nM.

With `O=C(Nc1ccsc1C(F)(F)F)c1csc2ncc(N3C[C@H]4CC[C@@H]3CN4)nc12` (single isomer, unassigned) [Example 75, 2-[(1S,4S)- or (1R,4R)-2,5-diazabicyclo [2.2.2]oct-2-yl]-N-[2-(trifluoromethyl)thiophen-3-yl] thieno[2,3-b] pyrazine-7-carboxamide trifluoroacetate], the IC50 came out at 1230 nM.

Molecule `O=C(Nc1ccccc1C(F)(F)F)c1csc2ncc(N3CCCNCC3)nc12` [Example 90, 2-(1,4-diazepan-1-yl)-N-[2-(trifluoromethyl)phenyl]thieno[2,3-b]pyrazine-7-carboxamide trifluoroacetate] had an IC50 of 6400 nM.

`Cn1cc(NC(=O)c2csc3ncc(N4C[C@H]5CC[C@@H]4CN5)nc23)c(Cl)n1` (single isomer, unassigned) [Example 17, N-(3-chloro-1-methyl-1H-pyrazol-4-yl)-2-[(1S,4S)- or (1R,4R)-2,5-diazabicyclo[2.2.2]oct-2-yl]thieno[2,3-b] pyrazine-7-carboxamide trifluoroacetate] showed an IC50 of 15 nM.

Molecule `Cn1cc(NC(=O)c2csc3ncc(N4CCCNCC4)nc23)c(Cl)n1` [Example 18, N-(3-chloro-1-methyl-1H-pyrazol-4-yl)-2-(1,4-diazepan-1-yl)thieno[2,3-b] pyrazine-7-carboxamide trifluoroacetate] showed an IC50 of 14 nM.

The molecule `Cn1cc(NC(=O)c2csc3ncc(N4CCCNCC4)nc23)c(Br)n1` [Example 21, N-(3-bromo-1-methyl-1H-pyrazol-4-yl)-2-(1,4-diazepan-1-yl)thieno[2,3-b] pyrazine-7-carboxamide trifluoroacetate] yielded an IC50 of 15 nM.

As to `N#Cc1ccccc1NC(=O)c1csc2ncc(N3CCCNCC3)nc12` [Example 80, N-(2-Cyanophenyl)-2-(1,4-diazepan-1-yl)thieno[2,3-b]pyrazine-7-carboxamide], inhibition was half-maximal at 558 nM (IC50).

In turn, `O=C(Nc1ccccc1Cl)c1csc2ncc(N3C[C@H]4CC[C@@H]3CN4)nc12` (single isomer, unassigned) [Example 100, N-(2-chlorophenyl)-2-[(1S,4S)- or (1R,4R)-2,5-diazabicyclo-[2.2.2]oct-2-yl]thieno[2,3-b]-pyrazine-7-carboxamide trifluoroacetate] displayed an IC50 of 191 nM.

In turn, `N[C@@H]1[C@H](Nc2cnc3scc(C(=O)Nc4ccccc4C(F)F)c3n2)CCCC1(F)F` [Example 106, 2-{[(1R,2R)-2-amino-3,3-difluorocyclohexyl]-amino}-N-[2-(difluoromethyl)phenyl]thieno[2,3-b]pyrazine-7-carboxamide trifluoroacetate] gave an IC50 of 2580 nM.

`Cn1cc(NC(=O)c2csc3ncc(N4CC5CCC4CN5)nc23)c(C(F)(F)F)n1` (stereo not shown) [Example 7, 2-(2,5-diazabicyclo[2.2.2]oct-2-yl)-N-[1-methyl-3-(trifluoromethyl)-1H-pyrazol-4-yl] thieno[2,3-b] pyrazine-7-carboxamide] returned an IC50 of 109 nM.

`N#Cc1ccccc1NC(=O)c1csc2ncc(N3CCNCC4(CC4)C3)nc12` [Example 83, N-(2-cyanophenyl)-2-(5,8-diazaspiro-[2.6]non-5-yl)-thieno[2,3-b]-pyrazine-7-carboxamide trifluoroacetate] displayed an IC50 of 899 nM.

`N#Cc1ccccc1NC(=O)c1csc2ncc(N3C[C@H]4CC[C@@H]3CN4)nc12` (single isomer, unassigned) [Example 98, N-(2-cyanophenyl)-2-[(1S,4S)- or (1R,4R)-2,5-diazabicyclo-[2.2.2]oct-2-yl]thieno[2,3-b]-pyrazine-7-carboxamide trifluoroacetate] came in with an IC50 of 251 nM.

In turn, `Cn1cc(NC(=O)c2csc3ncc(N[C@@H]4CCCCNC4)nc23)c(C(F)(F)F)n1` (single isomer, unassigned) [Example 38, 2-[(3S)- or (3R)-azepan-3-ylamino]-N-[1-methyl-3-(trifluoromethyl)-1H-pyrazol-4-yl]thieno[2,3-b] pyrazine-7-carboxamide trifluoroacetate] returned an IC50 of 0.6 nM.

As for `N[C@H]1CCCC[C@H]1Nc1cnc2scc(C(=O)Nc3ccccc3C(F)(F)F)c2n1` [Example 81, 2-{[(1R,2S)-2-aminocyclo-hexyl]amino}-N-[2-(trifluoromethyl)phenyl]thieno[2,3-b]pyrazine-7-carboxamide trifluoroacetate], the IC50 amounted to 86 nM.

For the molecule `N[C@@H]1[C@H](Nc2cnc3scc(C(=O)Nc4ccsc4Br)c3n2)CCCC1(F)F` [Example 71, 2-{[(1R,2R)-2-amino-3,3-difluorocyclohexyl]amino}-N-(2-bromothiophen-3-yl) thieno[2,3-b] pyrazine-7-carboxamide trifluoroacetate], inhibition was half-maximal at 2070 nM (IC50).

Take `N[C@H]1CCCC[C@H]1Nc1cnc2scc(C(=O)Nc3ccsc3Br)c2n1` [Example 54, 2-{[(1R,2S)-2-amino-cyclohexyl]amino}-N-(2-bromothiophen-3-yl)thieno[2,3-b] pyrazine-7-carboxamide trifluoroacetate]: 1 nM corresponded to half-maximal inhibition (IC50).

Regarding `O=C(Nc1cscc1Br)c1csc2ncc(N3CCCNCC3)nc12` [Example 48, N-(4-bromothiophen-3-yl)-2-(1,4-diazepan-1-yl)thieno[2,3-b] pyrazine-7-carboxamide trifluoroacetate], it took 346 nM to reach half-maximal inhibition (IC50).

The molecule `Cn1cc(NC(=O)c2csc3ncc(N[C@@H]4CCCC[C@@H]4N)nc23)c(C(F)F)n1` [Example 25, 2-{[(1R,2S)-2-aminocyclohexyl]amino}-N-[3-(difluoromethyl)-1-methyl-1H-pyrazol-4-yl]thieno[2,3-b] pyrazine-7-carboxamide trifluoroacetate] showed an IC50 of 0.2 nM.

`Cn1cc(NC(=O)c2csc3ncc(N[C@@H]4CCCNC4)nc23)c(C(F)(F)F)n1` [Example 4, trifluoroacetate] had an IC50 of 0.8 nM.
